In PMC10611828 (European Journal of Nuclear Medicine and Molecular Imaging, 2023):
Read-outs that look alike come from different tables or passages of the source.

What was measured:
[1] = In vivo biodistribution and clearance in PC-3 tumor-bearing mice; details: male, NMRI-Foxn1 nu/nu, mouse, iv, total radioactivity, i.v.; for tissue uptake at 1 h: 1 h p.i.; for tissue uptake at 4 h: 4 h p.i.; for tissue uptake at 24 h: 24 h p.i.; for tissue uptake at 48 h: 48 h p.i.; for tissue uptake at 72 h: 72 h p.i.
Experimental: All animal experiments were approved by the Animal Welfare Committee of the Erasmus MC, and all experiments were conducted in accordance to institutional guidelines.
At 1, 4, 24, 48, and 72 h post-injection (p.i.), animals were sedated using 2.5% isoflurane in oxygen, and blood was collected via the orbital vein, after which the animals were euthanized using cervical dislocation. Subsequently, the following organs were collected; the tail, tumor, spleen, liver, pancreas, small intestine, colon, coecum, kidneys, lung, and muscle. […] The collected tumor and organs were weighed, and the radioactivity was measured in the gamma counter. The biodistribution data are expressed as percentage injected dose per gram of tissue (% ID/g). Animal numbers per group are indicated in Supplementary Table 1 and 2.
Statistical analysis was performed using Graphpad Prism version 9.0.0. Outliers were identified using the ROUT method with a Q value of 1%. IC50 curves were determined using non-linear regression.

[2] = Stability in human serum at 37 °C (radio-HPLC); type: in vitro ADME
Experimental: (§1) The ^177Lu-labeled peptides were incubated in 300-μL phosphate buffered saline (PBS; Gibco, ThermoFisher, The Netherlands) at 37 °C, and their stability was verified after 1, 4, 24, 48, and 72 h by radio-HPLC (Supplementary Fig. 2). The stability in serum was determined by incubating the radiolabeled compounds into 300 μL of mouse serum (Invitrogen, USA) or human serum (Sigma Aldrich, USA) at 37 °C (Supplementary Fig. 3, 4). At each time point post-incubation, 35 μL of the mixture was added to an Eppendorf tube, and the proteins were precipitated by adding an equal volume of acetonitrile. The tubes were centrifuged at 16,000 rpm, 4 °C for 20 min, and the stability was monitored by radio-HPLC, expressed as the RCP at the different time points.

[3] = parameters: method as in PMID 35951084; details: cited from earlier work
[4] = Stability in mouse serum at 37 °C (radio-HPLC); type: in vitro ADME
Experimental: as §1

[5] = PC-3 tumor, read-out: % uptake PC-3 tumor
[6] = blood, read-out: % uptake blood
[7] = gastrointestinal tract, read-out: % uptake gastrointestinal tract
[8] = kidney, read-out: % uptake kidney
[9] = liver, read-out: % uptake liver
[10] = muscle, read-out: % uptake muscle
[11] = pancreas, read-out: % uptake pancreas
[12] = prostate, read-out: % uptake prostate
[13] = spleen, read-out: % uptake spleen
[14] = 1 h, read-out: intact radiolabeled ligand (RCP)
[15] = 4 h, read-out: intact radiolabeled ligand (RCP)
[16] = 24 h, read-out: intact radiolabeled ligand (RCP)
[17] = 48 h, read-out: intact radiolabeled ligand (RCP)
[18] = 72 h, read-out: intact radiolabeled ligand (RCP)

With CC(C)CC(CC(C)C)NC(=O)[C@H](Cc1cnc[nH]1)NC(=O)CNC(=O)[C@@H](NC(=O)[C@H](C)NC(=O)[C@H](Cc1c[nH]c2ccccc12)NC(=O)[C@H](CCC(N)=O)NC(=O)[C@@H](Cc1ccccc1)NC(=O)COCC(=O)Nc1ccc(CNC(=O)CN2CCN(CC(=O)O)CCN(CC(=O)O)CCN(CC(=O)O)CC2)cc1)C(C)C [[^177Lu]Lu-NeoB, metal not drawn] the tissue uptake at 1 h [1, 5] was 9.38 ± 0.81 %ID/g, the tissue uptake at 4 h [1, 5] was 9.98 ± 2.64 %ID/g and the tissue uptake at 24 h [1, 5] was 8.05 %ID/g. The tissue uptake at 48 h [1, 5] was 4.77 %ID/g, the tissue uptake at 72 h [1, 5] was 2.88 %ID/g and the tissue uptake at 1 h [1, 6] was 1.15 %ID/g. The tissue uptake at 4 h [1, 6] was 0.11 %ID/g, the tissue uptake at 24 h [1, 6] was 0.01 %ID/g and the tissue uptake at 48 h [1, 6] was 0.01 %ID/g. For the same compound, the tissue uptake at 1 h [1, 7] was 3.08 %ID/g, the tissue uptake at 4 h [1, 7] was 1.91 %ID/g and the tissue uptake at 24 h [1, 7] was 0.09 %ID/g. It also gave a tissue uptake at 48 h [1, 7] of 0.26 %ID/g, a tissue uptake at 72 h [1, 7] of 0.15 %ID/g and a tissue uptake at 1 h [1, 8] of 2.68 %ID/g. The tissue uptake at 4 h [1, 8] was 0.86 %ID/g, the tissue uptake at 24 h [1, 8] was 0.1 %ID/g and the tissue uptake at 48 h [1, 8] was 0.06 %ID/g. For the same compound, the tissue uptake at 72 h [1, 8] was 0.04 %ID/g, the tissue uptake at 1 h [1, 9] was 3.35 %ID/g and the tissue uptake at 4 h [1, 9] was 0.54 %ID/g. It also gave a tissue uptake at 24 h [1, 9] of 0.12 %ID/g, a tissue uptake at 48 h [1, 9] of 0.08 %ID/g and a tissue uptake at 72 h [1, 9] of 0.06 %ID/g. It also gave a tissue uptake at 1 h ([1]; lung, read-out: % uptake lungs) of 0.69 %ID/g, a tissue uptake at 4 h ([1]; lung, read-out: % uptake lungs) of 0.09 %ID/g and a tissue uptake at 24 h ([1]; lung, read-out: % uptake lungs) of 0.02 %ID/g. It also gave a tissue uptake at 48 h ([1]; lung, read-out: % uptake lungs) of 0.01 %ID/g, a tissue uptake at 72 h ([1]; lung, read-out: % uptake lungs) of 0.01 %ID/g and a tissue uptake at 1 h [1, 10] of 0.13 %ID/g. For the same compound, the tissue uptake at 4 h [1, 10] was 0.05 %ID/g, the tissue uptake at 1 h [1, 11] was 30.7 ± 4.29 %ID/g and the tissue uptake at 4 h [1, 11] was 21.4 ± 3.05 %ID/g. The tissue uptake at 24 h [1, 11] was 4.14 %ID/g, the tissue uptake at 48 h [1, 11] was 0.83 %ID/g and the tissue uptake at 72 h [1, 11] was 0.35 %ID/g. For the same compound, the tissue uptake at 1 h [1, 12] was 0.7 %ID/g, the tissue uptake at 4 h [1, 12] was 0.08 %ID/g and the tissue uptake at 24 h [1, 12] was 0.02 %ID/g. The tissue uptake at 48 h [1, 12] was 0.01 %ID/g, the tissue uptake at 72 h [1, 12] was 0.01 %ID/g and the tissue uptake at 1 h [1, 13] was 0.43 %ID/g. It also gave a tissue uptake at 4 h [1, 13] of 0.15 %ID/g, a tissue uptake at 24 h [1, 13] of 0.04 %ID/g and a tissue uptake at 48 h [1, 13] of 0.02 %ID/g. For the same compound, the tissue uptake at 72 h [1, 13] was 0.01 %ID/g, the “intact radiolabeled ligand (RCP)” value ([2]; 0 h) was 97.1 ± 0.3% and the remaining at 1 h [2, 14] was 97.9 ± 0.2%. The remaining at 4 h [2, 15] was 97.8 ± 0.3%, the remaining at 24 h [2, 16] was 89.2 ± 0.5% and the remaining at 48 h [2, 17] was 81 ± 0.7%. For the same compound, the remaining at 72 h [2, 18] was 75.6 ± 1.7%, the tolerability ([3]; after repeated radiotracer administration) was “well tolerated” and the “hematological effects after treatment” value [3] was “no lasting hematological effects”. For the same compound, the “intact radiolabeled ligand (RCP)” value ([4]; 0 h) was 97.1 ± 0.3%, the remaining at 1 h [4, 14] was 94.3 ± 0.7% and the remaining at 4 h [4, 15] was 84.1 ± 1.1%. The remaining at 24 h [4, 16] was 27.9 ± 2.3%, the remaining at 48 h [4, 17] was 14.2 ± 1% and the remaining at 72 h [4, 18] was 4.4 ± 1.2%.
